According to patent US20220175859A1, “Tetraselmis Extract” (SYMRISE AG, priority 2018, published 2022):

Assays:
Type in all cases: cell-based
human sebaceous glands [1] = assay: Viability test (resazurin) of micro-dissected human sebaceous glands
Experimental: To better understand the response to the extract, a viability test was performed in parallel at day 1 and day 6 of organ culture. Resazurin was added to the wells (1:11) and let incubate for 2 hours. At the end of the incubation an aliquot of the medium was read with a fluorometer (excitation: 560 nm, emission: 590 nm). The medium was then replaced with normal medium for 2 hours in order to eliminate residual resazurin. After this the medium was replaced again with medium containing the test samples. The viability in each well was measured as the difference in percentage between day 6 and day 1.
The same experimental set-up as described in Example 3 was used to evaluate the combination of Tetraselmis suecica extract and niacinamide for synergistic activity.

human sebaceous glands [2] = assay: Total lipid content of micro-dissected ex vivo human sebaceous glands (organ culture); details: extract 0.3 ppm, Capsaicin 5 μM (=1.5 ppm), lipids normalized to proteins
Experimental: Organ culture of human sebaceous glands micro-dissected from human skin explants was performed to evaluate the modulatory activity of Tetraselmis suecica extract prepared according to the description given in Example 1 on the sebum level. The extract is employed in the dried form. After removal of the epidermis of the full thickness skin sample, the sebaceous glands were carefully removed using micro-scissors and scalpel. The micro-dissected sebaceous glands were then pooled in groups of 8 and cultured up to day 6 in a 24 well plate immersed in 500 μl of modified Williams' E medium. After 24 hours of acclimation the culture medium was changed and substituted with the medium containing the extract to be tested. The medium was renewed at day 3 and 5 of culture. At day 6 the glands were collected and used for the quantification of lipids and proteins. […] To do so, each sebaceous glands group was homogenized in 100 μl of isopropyl alcohol to extract lipids and let the proteins undissolved. After centrifugation the supernatant containing the extracted sebum was collected and analyzed. The remaining pellet was dried using a vacuum dry evaporator and then minced in presence of 50 μl of protein lysis buffer. After an appropriate incubation time, this extractive mixture was centrifuged, and the supernatant was collected and analyzed. The lipids dissolved in isopropyl alcohol and the proteins dissolved in the lysis buffer were quantified by infrared spectroscopy using a Direct Detect IR Spectrometer (Millipore). The total lipid amount was obtained by normalizing the quantified lipids upon the quantified proteins (i.e. mg of lipids/mg of proteins). The amounts of normalized lipids, i.e. the sebum produced by each group of sebaceous glands, obtained from the treated groups was compared to that of the untreated control group and the modulatory activity was calculated in percentage. […] For statistical analysis, differences among groups were evaluated by one-way anova with permutation test followed by Dunnett's permutation test. […]

human sebaceous glands [3] = assay: Synergistic effect of Tetraselmis suecica extract and niacinamide on total lipid content of ex vivo human sebaceous glands (Kull's equation); details: Donor 1 (Example 4); 0.3 ppm extract, 100 ppm niacinamide, or 0.15 ppm extract + 50 ppm niacinamide
Source text: Kull's equation for calculation of the synergism index SI was used:
A=lipid reduction by Tetraselmis suecica extract at concentration x B=lipid reduction by niacinamide at concentration y C=lipid reduction by the combination of Tetraselmis suecica extract at concentration x/2 and niacinamide at concentration y/2 D=Factor for Tetraselmis suecica extract=>0.5 (due to half concentration tested in the combination) E=Factor for niacinamide=>0.5 (due to half concentration tested in the combination) A SI=1 is obtained for additive activity of the two combined components, whereas a SI<1 proves antagonistic activity (observed efficacy is lower than additive) and SI>1 proves synergistic activity (observed efficacy is higher than additive).

Row | Structure (SMILES) | Viability (human sebaceous glands [1]; Donor 1, day 6 versus day 1, extract 0.3 ppm, Capsaicin 5 μM (1.5 ppm), untreated 93) [%] | Viability (human sebaceous glands [1]; Donor 2, day 6 versus day 1, extract 0.3 ppm, Capsaicin 5 μM (1.5 ppm), untreated 100) [%] | Viability (human sebaceous glands [1]; Donor 3, day 6 versus day 1, extract 0.3 ppm, Capsaicin 5 μM (1.5 ppm), untreated 81) [%] | Reduction of lipids at day 6 versus untreated (human sebaceous glands [2]; Donor 1) [%] | Reduction of lipids at day 6 versus untreated (human sebaceous glands [2]; Donor 2) [%] | Reduction of lipids at day 6 versus untreated (human sebaceous glands [2]; Donor 3) [%] | Viability (human sebaceous glands [1]; Donor 1 (Example 4), 0.3 ppm extract, 100 ppm niacinamide, or 0.15 ppm extract + 50 ppm niacinamide, untreated 81) [%] | Reduction of lipids at day 6 versus untreated (human sebaceous glands [3]) [%]
1 | COc1cc(CNC(=O)CCCC/C=C/C(C)C)ccc1O [Capsaicin] | 92 | 99 | 85 | 11 | 28 | 14 |  | 
2 | NC(=O)c1cccnc1 [niacinamide, Niacinamide] |  |  |  |  |  |  | 78 | 6
